Values of other authors, collected in patent US20250120404A1, “BOTANICAL PESTICIDE COMPOSITIONS” (Mosquito Squad Franchising SPE LLC, priority 2023, published 2025).

Tested on: mosquitoes
Conditions: average reported toxicity from literature, concentration/biomass

Row | Compound | Concentration of Oil Extract Necessary for Mosquito Death
1 | CC(C)=CCC/C(C)=C/CO [Geraniol] | Varying levels
2 | C=CCc1ccc(O)c(OC)c1 [Eugenol] | Varying levels
3 | CCC(=O)OCCc1ccccc1 [2-phenethyl proprionate] | Varying levels
